Results taken from ChEMBL document CHEMBL1201862, “PubChem BioAssay data set” (2004).
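Tested at 5 concentrations; 48 h exposure; 96-well plates; endpoints linearly interpolated, else capped at highest concentration. GI50: concentration for 50% inhibition of growth.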 Activity calls are given as the source filed them. Rule as the data show it: active = GI50 up to about 1.1 µM and inactive = higher.

Key:
Experiment in all cases: inhibition of tumour cell growth, NCI panel, 48 h
Malme-3M = test system: Malme-3M
LXFL 529 = test system: LXFL 529
UACC-257 = test system: UACC-257
NCI-H522 = test system: NCI-H522
UO-31 = test system: UO-31
NCI-H460 = test system: NCI-H460
CAKI-1 = test system: CAKI-1
SK-MEL-2 = test system: SK-MEL-2
CCRF-CEM = test system: CCRF-CEM
OVCAR-8 = test system: OVCAR-8
786-0 = test system: 786-0
HCT-15 = test system: HCT-15
DMS-114 = test system: DMS-114
DMS-273 = test system: DMS-273
RXF 393 = test system: RXF 393
EKVX = test system: EKVX
SF-295 = test system: SF-295
MOLT-4 = test system: MOLT-4
DLD-1 = test system: DLD-1
COLO 205 = test system: COLO 205
U-251 = test system: U-251
HOP-62 = test system: HOP-62
HOP-92 = test system: HOP-92
HCT-116 = test system: HCT-116
SK-MEL-28 = test system: SK-MEL-28
SN12C = test system: SN12C
SNB-78 = test system: SNB-78
OVCAR-5 = test system: OVCAR-5
SK-MEL-5 = test system: SK-MEL-5
SF-268 = test system: SF-268
SW-620 = test system: SW-620
K562 = test system: K562
HL-60 = test system: HL-60
M14 = test system: M14
KM12 = test system: KM12
OVCAR-3 = test system: OVCAR-3
KM-20L2 = test system: KM-20L2
M19-MEL = test system: M19-MEL
SNB-75 = test system: SNB-75
OVCAR-4 = test system: OVCAR-4
IGROV-1 = test system: IGROV-1
UACC-62 = test system: UACC-62
NCI-H226 = test system: NCI-H226
SNB-19 = test system: SNB-19
NCI-H23 = test system: NCI-H23
HCC 2998 = test system: HCC 2998
ACHN = test system: ACHN
LOX IMVI = test system: LOX IMVI
A498 = test system: A498
A549 = test system: A549
HT-29 = test system: HT-29
TK-10 = test system: TK-10
SF-539 = test system: SF-539
RXF 631 = test system: RXF 631
SK-OV-3 = test system: SK-OV-3
HOP-18 = test system: HOP-18
RPMI-8226 = test system: RPMI-8226
XF498 = test system: XF498
SR = test system: SR

Measured: GI50

CCC1(O)CC(c2ccccc2)N(C)C(c2ccccc2)C1 (stereo not drawn)
inactive: Malme-3M > 100 µM | LXFL 529 > 100 µM | UACC-257 > 100 µM | NCI-H522 94 µM | UO-31 > 100 µM | NCI-H460 > 100 µM | CAKI-1 > 100 µM | SK-MEL-2 > 100 µM | CCRF-CEM > 100 µM | OVCAR-8 > 100 µM | 786-0 > 100 µM | DMS-114 > 100 µM | DMS-273 > 100 µM | RXF 393 > 100 µM | EKVX > 100 µM | SF-295 > 100 µM | MOLT-4 > 100 µM | DLD-1 > 100 µM | COLO 205 > 100 µM | U-251 > 100 µM | HOP-62 > 100 µM | HOP-92 > 100 µM | HCT-116 86.9 µM | SK-MEL-28 > 100 µM | SN12C > 100 µM | SNB-78 > 100 µM | OVCAR-5 > 100 µM | SK-MEL-5 > 100 µM | SF-268 > 100 µM | SW-620 > 100 µM | K562 94.2 µM | HL-60 69.2 µM | M14 > 100 µM | KM12 > 100 µM | OVCAR-3 > 100 µM | KM-20L2 > 100 µM | M19-MEL > 100 µM | SNB-75 > 100 µM | OVCAR-4 > 100 µM | IGROV-1 > 100 µM | UACC-62 > 100 µM | NCI-H226 > 100 µM | SNB-19 > 100 µM | NCI-H23 > 100 µM | HCC 2998 > 100 µM | ACHN > 100 µM | LOX IMVI > 100 µM | A498 > 100 µM | A549 > 100 µM | HT-29 97.9 µM | TK-10 > 100 µM | SF-539 > 100 µM | RXF 631 > 100 µM | SK-OV-3 > 100 µM
> 100 µM: HCT-15

C[Si](C)(C)/C=C/CN1C(=O)CCC1O (stereo not drawn)
inactive: Malme-3M > 100 µM | LXFL 529 > 100 µM | UACC-257 > 100 µM | NCI-H522 > 100 µM | UO-31 > 100 µM | NCI-H460 > 100 µM | CAKI-1 > 100 µM | SK-MEL-2 > 100 µM | CCRF-CEM > 100 µM | OVCAR-8 > 100 µM | 786-0 > 100 µM | DMS-114 > 100 µM | DMS-273 > 100 µM | RXF 393 > 100 µM | EKVX > 100 µM | HOP-18 > 100 µM | SF-295 > 100 µM | MOLT-4 > 100 µM | DLD-1 > 100 µM | COLO 205 > 100 µM | U-251 > 100 µM | HOP-62 > 100 µM | HOP-92 > 100 µM | HCT-116 > 100 µM | SK-MEL-28 > 100 µM | SN12C > 100 µM | SNB-78 > 100 µM | OVCAR-5 > 100 µM | SK-MEL-5 > 100 µM | SF-268 > 100 µM | SW-620 > 100 µM | K562 > 100 µM | HL-60 > 100 µM | M14 > 100 µM | KM12 > 100 µM | OVCAR-3 > 100 µM | KM-20L2 > 100 µM | M19-MEL > 100 µM | RPMI-8226 > 100 µM | SNB-75 > 100 µM | OVCAR-4 > 100 µM | IGROV-1 > 100 µM | UACC-62 > 100 µM | XF498 > 100 µM | NCI-H226 > 100 µM | SNB-19 > 100 µM | NCI-H23 > 100 µM | HCC 2998 > 100 µM | ACHN > 100 µM | SR > 100 µM | LOX IMVI > 100 µM | A498 > 100 µM | A549 > 100 µM | HT-29 > 100 µM | TK-10 > 100 µM | SF-539 > 100 µM | SK-OV-3 > 100 µM
> 100 µM: HCT-15
